ChEMBL document CHEMBL1212816, “Proanthocyanidins from the leaves of Machilus philippinensis” (J Nat Prod, 2010)

Test: Inhibition of Bacillus stearothermophilus alpha glucosidase-4
Design: species or system Geobacillus stearothermophilus

IC50 [µM] | Compound
0.049 | C[C@H]1O[C@H](O[C@H]2[C@H](O)[C@@H](O)[C@@H](O[C@H]3[C@H](O)[C@@H](O)C(O)O[C@@H]3CO)O[C@@H]2CO)[C@H](O)[C@@H](O)[C@@H]1N[C@H]1C=C(CO)[C@@H](O)[C@H](O)[C@H]1O (some centres undefined) [ACARBOSE]
> 100 | Oc1cc(O)c2c(c1)O[C@@]1(c3ccc(O)c(O)c3)Oc3cc(O)c4c(c3[C@@H]2[C@H]1O)O[C@H](c1ccc(O)c(O)c1)[C@H](O)[C@H]4c1c(O)cc(O)c2c1O[C@H](c1ccc(O)c(O)c1)[C@H](O)C2 [CINNAMTANNIN B1]
3.5 | Oc1cc(O)c2c(c1)O[C@@]1(c3ccc(O)c(O)c3)Oc3cc(O)c4c(c3[C@@H]2[C@H]1O)O[C@@H](c1ccc(O)c(O)c1)[C@H](O)[C@H]4c1c(O)cc(O)c2c1O[C@H](c1ccc(O)c(O)c1)[C@H](O)C2 [AESCULTITANNIN B]
18.4 | Oc1cc(O)c2c(c1)O[C@H](c1ccc(O)c(O)c1)[C@H](O)[C@H]2c1c(O)cc(O)c2c1O[C@H](c1ccc(O)c(O)c1)[C@H](O)[C@H]2c1c(O)cc(O)c2c1O[C@H](c1ccc(O)c(O)c1)[C@H](O)[C@H]2c1c(O)c2c(c3c1O[C@]1(c4ccc(O)c(O)c4)Oc4cc(O)cc(O)c4[C@H]3[C@H]1O)O[C@H](c1ccc(O)c(O)c1)[C@H](O)[C@H]2c1c(O)cc(O)c2c1O[C@H](c1ccc(O)c(O)c1)[C@H](O)C2
> 100 | Oc1cc(O)c2c(c1)O[C@H](c1ccc(O)c(O)c1)[C@H](O)[C@H]2c1c(O)c2c(c3c1O[C@]1(c4ccc(O)c(O)c4)Oc4cc(O)cc(O)c4[C@H]3[C@H]1O)O[C@H](c1ccc(O)c(O)c1)[C@H](O)[C@H]2c1c(O)cc(O)c2c1O[C@H](c1ccc(O)c(O)c1)[C@H](O)C2
92.9 | Oc1cc(O)c2c(c1)O[C@@]1(c3ccc(O)c(O)c3)Oc3cc(O)c4c(c3[C@@H]2[C@H]1O)O[C@H](c1ccc(O)c(O)c1)[C@H](O)[C@H]4c1c(O)cc(O)c2c1O[C@H](c1ccc(O)c(O)c1)[C@@H](O)C2 [CINNAMTANNIN D1]
10.5 | Oc1cc(O)c2c(c1)O[C@H](c1ccc(O)c(O)c1)[C@H](O)[C@H]2c1c(O)cc2c(c1O)[C@@H]1c3c(cc(O)c4c3O[C@H](c3ccc(O)c(O)c3)[C@H](O)[C@H]4c3c(O)cc(O)c4c3O[C@H](c3ccc(O)c(O)c3)[C@H](O)C4)O[C@](c3ccc(O)c(O)c3)(O2)[C@@H]1O
31.3 | Oc1cc(O)c2c(c1)O[C@H](c1ccc(O)c(O)c1)[C@H](O)[C@H]2c1c(O)cc(O)c2c1O[C@H](c1ccc(O)c(O)c1)[C@H](O)[C@H]2c1c(O)c2c(c3c1O[C@]1(c4ccc(O)c(O)c4)Oc4cc(O)cc(O)c4[C@H]3[C@H]1O)O[C@H](c1ccc(O)c(O)c1)[C@H](O)[C@H]2c1c(O)cc(O)c2c1O[C@H](c1ccc(O)c(O)c1)[C@H](O)C2
> 100 | Oc1cc(O)c2c(c1)O[C@H](c1ccc(O)c(O)c1)[C@H](O)C2 [(-)-EPICATECHIN]
